Format in all cases: cell-based, human
Assay [1] relates to RS4,11 B-acute lymphoblastic leukemia cell line. In words: CD38 expression by flow cytometry on RS4,11 cells. The source says:
(§1) HL-60 acute promyelocytic leukemia cell line was purchased from ECACC (cat. 98070106), U-937 hystiocytic lymphoma cell line and MM.1S multiple myeloma cell line were purchased from ATCC (cat. CRL-2974 and cat CRL-1593,2, respectively), L-363 multiple myeloma cell line, L-428 classical Hodgkin lymphoma cell line and RS4,11 B-acute lymphoblastic leukemia cell lines were purchased from DSMZ (plasma cell leukemia, cat. ACC 49, cat. ACC 197 and cat. ACC 508, respectively). All cells were maintained in RPMI Medium 1640—GlutaMAX™ (Gibco 61870) except the RS4,11 cells in alpha-MEM Medium (Gibco 12571-063), supplemented with 10% heat inactivated charcoal stripped fetal bovine serum. All culture media were supplemented with 100 units/ml penicillin and 0.1 mg/ml streptomycin, and cell lines were cultured at 37° C. in a humidified atmosphere containing 5% CO2.
(§2) Cells were treated for 72 h with various concentrations of inecalcitol (Hybrigenics, Paris, France) before labelling with fluorescent anti-human CD38 FITC (eBioscience, Vienna, Austria, cat. 11-0389-41) or the matched isotype control: mouse IgG1 K FITC (eBioscience, Vienna Austria, cat. 11-4714-41) for 1 h at 4° C. in native buffer (PBS, 2% BSA, 0.1% sodium azide). After cell wash, fluorescence was measured on an ACEA NovoCyte Flow Cytometer.
A general note: In flow cytometry, cells or beads pass a laser one at a time.

Assay [2] relates to U-937 hystiocytic lymphoma cell line. In words: CD38 expression by flow cytometry on U-937 cells.
Description: as §1, §2

In assay [3] the test system is MM.1S multiple myeloma cell line. In words: CD38 expression by flow cytometry on MM.1S cells.
Description: as §1, §2

Assay [4] has as its system L-363 multiple myeloma cell line. In words: CD38 expression by flow cytometry on L-363 cells.
Description: as §1, §2

Assay [5] concerns L-428 classical Hodgkin lymphoma cell line. As to the kind of experiment: CD38 expression by flow cytometry on L-428 cells.
Description: as §1, §2

The subject of assay [6] is HL-60 acute promyelocytic leukemia cell line. In words: CD38 expression by flow cytometry on HL-60 cells.
Description: as §1, §2

We go through one compound from patent US10478497B2, “Combinations of inecalcitol with an anti-CD38 agent and their uses for treating cancer” (HYBRIGENICS SA., priority 2016, dated 2019).

Molecules are shown by their SMILES.

With `C[C@H](CC#CC(C)(C)O)[C@H]1CC[C@@H]2/C(=C/C=C3C[C@@H](O)C[C@H](O)C3)CCC[C@@]21C` [inecalcitol, 14epi-, 19nor-, 23yne-, 1,25dihydroxy-cholecalciferol], the “effect on CD38 expression (fold increase of CD38 mean fluorescent signal), in words” value in assay [1] (FIG. 6, RS4.11 cell line, dose dependent) was “enhances CD38 expression”; in assay [2] (FIG. 3, U-937 cell line, dose dependent), “enhances CD38 expression”; in assay [3] (FIG. 1, MM.1S cell line, dose dependent), “enhances CD38 expression”; in assay [4] (FIG. 2, L-363 cell line, dose dependent), “enhances CD38 expression”; in assay [5] (FIG. 5, classical Hodgkin lymphoma cell line, dose dependent), “enhances CD38 expression”; in assay [6] (FIG. 4, HL-60 cell line, dose dependent), “enhances CD38 expression”. The “increase in fluorescent labelling (CD38)” value in assay [1] (RS4,11 cells, 72 h treatment) was 2.5 fold; in assay [5] (L-428 cells, 72 h treatment) it was 2 fold. Besides, the EC50 worked out at 0.55 nM in assay [1] (RS4,11 cells, 72 h treatment, anti-human CD38 FITC flow cytometry, read-out: concentration which triggered 50% of the maximum CD38 induction (EC50)); 0.57 nM in assay [2] (U-937 cells, 72 h treatment, anti-human CD38 FITC flow cytometry, read-out: concentration which triggered 50% of the maximum CD38 induction (EC50)); 0.49 nM in assay [3] (MM1.S, MM.1s cells, 72 h treatment, anti-human CD38 FITC flow cytometry, read-out: concentration which triggered 50% of the maximum CD38 induction (EC50)); 4 nM in assay [4] (L-363 cells, 72 h treatment, anti-human CD38 FITC flow cytometry, read-out: concentration which triggered 50% of the maximum CD38 induction (EC50)); 0.23 nM in assay [5] (L-428 cells, 72 h treatment, anti-human CD38 FITC flow cytometry, read-out: concentration which triggered 50% of the maximum CD38 induction (EC50)); 0.43 nM in assay [6] (HL-60 cells, 72 h treatment, anti-human CD38 FITC flow cytometry, read-out: concentration which triggered 50% of the maximum CD38 induction (EC50)). In addition, the “maximal increase in fluorescent labelling (CD38)” value in assay [2] (U-937 cells, 72 h treatment) stood at 5 fold; in assay [3] (MM.1s cells, 72 h treatment) it was 5 fold; in assay [4] (L-363 cells, 72 h treatment), 5 fold.
